Results taken from US8426447B2, “Spiro-tricyclic ring compounds as beta-secretase modulators and methods of use” (Amgen Inc., priority 2008, dated 2013).

Columns and labels:
[1] = target: T1, BACE1 (Homo sapiens, UniProt P56817); test: In Vitro BACE Cell-based Assay (HEK cell assay): Aβ40 in conditioned medium of cells stably expressing Amyloid Precursor Protein, sandwich ELISA
Summary of the method: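 First, APP-stable cells grow 24 h at 37° C., 5% CO2. Next, test compounds are added for 24 h (10 doses, 0.1% DMSO). Finally, medium Aβ40 is determined by pAb40/6E10 sandwich ELISA with Europium TRF, and IC50 is calculated.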

[2] = target: T1, BACE1; test: In Vitro Enzymatic BACE FRET (Fluorescence Resonance Energy Transfer) Assay; assay type: biochemical
Summary of the method: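 Acetate buffer at pH 4.2 with 10% DMSO and 100 uM genapol hosts the enzymatic reaction, initiated by 50 nM FRET substrate and allowed to proceed one hour. Tris quench to neutral pH precedes the fluorescence measurement.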

[3] = Table IV, class symbols, read-out: HEK cell assay
[4] = Table IV, class symbols, read-out: BACE1 FRET assay
[5] = HEK cells, read-out: HEK cell assay
[6] = HEK cell-based assay, Aβ40 in conditioned medium, IC50 class symbols, read-out: HEK cell assay
[7] = in vitro BACE FRET enzyme assay, IC50 class symbols, read-out: BACE1 FRET assay
[8] = Table III, IC50's in uM ranges, read-out: HEK cell assay
[9] = Table III, IC50's in uM ranges, read-out: BACE1 FRET assay

T1 sequence (P56817 46-501, species assumed): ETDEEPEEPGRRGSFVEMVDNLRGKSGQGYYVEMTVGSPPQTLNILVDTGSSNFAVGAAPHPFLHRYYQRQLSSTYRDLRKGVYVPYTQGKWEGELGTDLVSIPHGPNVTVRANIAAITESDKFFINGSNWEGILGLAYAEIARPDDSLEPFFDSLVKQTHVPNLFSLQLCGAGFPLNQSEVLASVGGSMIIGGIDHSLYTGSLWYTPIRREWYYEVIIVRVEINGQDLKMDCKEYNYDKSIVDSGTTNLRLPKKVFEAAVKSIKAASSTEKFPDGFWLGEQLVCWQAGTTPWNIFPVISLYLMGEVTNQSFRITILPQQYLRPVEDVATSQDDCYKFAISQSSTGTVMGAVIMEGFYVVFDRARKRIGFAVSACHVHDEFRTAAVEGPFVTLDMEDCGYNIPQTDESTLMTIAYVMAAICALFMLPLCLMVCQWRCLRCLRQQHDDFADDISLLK

IC50 [1, 3] [µM] | IC50 [2, 4] [µM] | IC50 ([2]; read-out: BACE1 FRET assay) [µM] | SMILES | other results
0.1 to 1 | 1 to 5 | – | CN1CCN(c2ccc3c(c2)[C@@]2(COC(N)=N2)c2cc(OCC(C)(C)C)ccc2O3)CC1 [compound 812] | –
1 to 5 | 1 to 5 | – | CC(C)(C)COc1ccc2c(c1)[C@]1(COC(N)=N1)c1cc(-c3ccc(S(C)(=O)=O)cc3)ccc1O2 [compound 910] | –
– | – | 0.1 to 1 | NC1=N[C@]2(CO1)c1cc(C(=O)N3CCCC3)ccc1Oc1ccc(-c3cccnc3)cc12 [compound 945] | IC50 ([1]; read-out: HEK cell assay): 0.1 to 1 µM
– | – | < 0.1 | CCCOc1cc2c(cc1F)Oc1ccc(-c3cncnc3)cc1[C@@]21COC(N)=N1 [compound 940] | IC50 ([1]; read-out: HEK cell assay): < 0.1 µM
0.1 to 1 | 0.1 to 1 | – | CN(C)C(=O)c1ccc2c(c1)[C@]1(COC(N)=N1)c1cc(OCC(C)(C)C)ccc1O2 [compound 799] | –
> 5 | 1 to 5 | – | CC(C)(C)COc1ccc2c(c1)[C@]1(COC(N)=N1)c1cc(C(=O)O)ccc1O2 [compound 861] | –
0.1 to 1 | < 0.1 | – | CC(=O)/C=C/c1ccc2c(c1)[C@]1(COC(N)=N1)c1cc(-c3cncnc3)ccc1O2 [compound 857] | –
– | – | 1 to 5 | COC(=O)/C=C/c1ccc2c(c1)[C@@]1(COC(N)=N1)c1cc(Br)ccc1O2 [compound 950] | IC50 ([1]; read-out: HEK cell assay): > 5 µM
< 0.1 | < 0.1 | – | NC1=N[C@@]2(CO1)c1cc(-c3cncnc3)ccc1Oc1ncc(C3=CCOCC3)cc12 [compound 805] | –
1 to 5 | < 0.1 | – | CC(C)(C)COc1ccc2c(c1)[C@]1(COC(N)=N1)c1cc(-c3cccs3)ccc1O2 [compound 834] | –
< 0.1 | < 0.1 | – | CC(C)(C)COc1ccc2c(c1)[C@@]1(COC(N)=N1)c1cc(-c3cccnc3F)cnc1O2 [compound 870] | –
– | – | < 0.1 | NC1=N[C@]2(CO1)c1cc(C#CC3(O)CCC3)ccc1Oc1ccc(-c3cccnc3)cc12 [compound 942] | IC50 ([1]; read-out: HEK cell assay): < 0.1 µM
0.1 to 1 | 0.1 to 1 | – | CC(C)CCCOc1nccc2c1[C@]1(COC(N)=N1)c1cc(-c3cccnc3)ccc1O2 [compound 842] | –
– | – | 0.1 to 1 | CC(C)(C)COc1ccc2c(c1)[C@]1(COC(N)=N1)c1cc(-c3cnc4ccccn34)ccc1O2 [compound 975] | IC50 ([1]; read-out: HEK cell assay): 0.1 to 1 µM
– | – | < 0.1 | CC(C)(O)COc1ccc2c(c1Br)[C@]1(COC(N)=N1)c1cc(-c3cccnc3)ccc1O2 [compound 944] | IC50 ([1]; read-out: HEK cell assay): < 0.1 µM
0.1 to 1 | < 0.1 | – | NC1=N[C@@]2(CO1)c1cc(-c3cncnc3)ccc1Oc1ccc(-c3cccc(O)c3)cc12 [compound 891] | –

The next lines start with the molecule.

SMILES | IC50 [1, 3] [µM] | IC50 [2, 4] [µM] | IC50 ([2]; read-out: BACE1 FRET assay) [µM] | other results
CC(C)(F)COc1cnc2c(c1)[C@]1(COC(N)=N1)c1cc(-c3ccccc3)ccc1O2 [compound 452] | – | – | < 0.1 | IC50 [1, 5]: 0.1 to 1 µM
Cc1ccc2c(c1)Oc1ccc(-c3cccc(Cl)c3)cc1C21COC(N)=N1 (stereo not shown) [Example 25, 2′-(3-chlorophenyl)-6′-methylspiro[1,3-oxazole-4,9′-xanthen]-2-amine] | – | – | – | IC50 ([1]; Table 1, Aβ40, 24 h incubation, read-out: HEK cell assay): 1 to 5 µM; IC50 ([2]; Table 1, read-out: BACE1 FRET assay): > 5 µM
CC1(COc2cnc3c(c2)[C@]2(COC(N)=N2)c2cc(-c4cc(F)ccc4F)ccc2O3)COC1 [compound 412] | – | – | – | IC50 [1, 6]: < 0.1 µM; IC50 [2, 7]: < 0.1 µM
CC(C)(F)COc1cnc2c(c1)[C@]1(COC(N)=N1)c1cc(-c3ccc(F)nc3)ccc1O2 [compound 451] | – | – | < 0.1 | IC50 [1, 5]: < 0.1 µM
CC(C)(C)COc1ccc2c(n1)[C@@]1(COC(N)=N1)c1cc(-c3cncnc3)ccc1O2 [compound 732] | – | – | 1 to 5 | IC50 ([1]; read-out: HEK cell assay): 1 to 5 µM
COC1CN(c2ccc3c(c2)[C@]2(COC(N)=N2)c2cc(-c4cccnc4)ccc2O3)C1 [compound 604] | < 0.1 | < 0.1 | – | –
CCOC(C)(C)COc1ccc2c(c1)[C@]1(COC(N)=N1)c1cc(-c3cncnc3)ccc1O2 [compound 170] | – | – | – | IC50 [1, 8]: < 0.1 µM; IC50 [2, 9]: < 0.1 µM
Cc1cc(-c2ccc3c(c2)[C@]2(COC(N)=N2)c2cc(-c4ccc(F)nc4)ccc2O3)on1 [compound 565] | 0.1 to 1 | < 0.1 | – | –
COC(C)(C)C#Cc1cnc2c(c1)[C@]1(COC(N)=N1)c1cc(-c3cccnc3)ccc1O2 [compound 603] | < 0.1 | < 0.1 | – | –
NC1=N[C@]2(CO1)c1ccncc1Oc1ccc(-c3cccnc3)cc12 [compound 675] | – | – | 0.1 to 1 | IC50 ([1]; read-out: HEK cell assay): 1 to 5 µM
NC1=N[C@@]2(CO1)c1cc(-c3cccnc3F)ccc1Oc1cnc(C3CCOCC3)cc12 [Example 495, (5S)-7-(2-fluoro-3-pyridinyl)-3-(tetrahydro-2H-pyran-4-yl)spiro[chromeno[2,3-c]pyridine-5,4′-[1,3]oxazol]-2′-amine] | – | – | – | IC50 ([1]; HEK cell assay (uM), HEK cells): < 0.1 µM; IC50 ([2]; BACE1 FRET assay (uM)): < 0.1 µM
CC(C)(O)CCc1ccc2c(c1)[C@]1(COC(N)=N1)c1cc(-c3cccnc3)ccc1O2 [compound 193] | – | – | – | IC50 [1, 8]: < 0.1 µM; IC50 [2, 9]: < 0.1 µM
NC1=N[C@@]2(CO1)c1cc(-c3cccnc3)ccc1Oc1c(F)cc(OCC3CCOCC3)cc12 [compound 418] | – | – | – | IC50 [1, 6]: < 0.1 µM; IC50 [2, 7]: < 0.1 µM
CC1(C)CC(=O)N(c2ccc3c(c2)[C@]2(COC(N)=N2)c2cc(-c4cccnc4)ccc2O3)C1 [compound 749] | – | – | < 0.1 | IC50 ([1]; read-out: HEK cell assay): < 0.1 µM
CCOC(C)(C)COc1ccc2c(c1)[C@]1(COC(N)=N1)c1cc(-c3cccnc3)ccc1O2 [compound 172] | – | – | – | IC50 [1, 8]: < 0.1 µM; IC50 [2, 9]: < 0.1 µM
NC1=N[C@@]2(CO1)c1cc(-c3cccnc3)ccc1Oc1ccc(-c3csc(N4CCCC4)n3)cc12 [compound 624] | 1 to 5 | 0.1 to 1 | – | –
NC1=N[C@@]2(CO1)c1cc(-c3cccnc3)ccc1Oc1cnc(C3CCCCC3)cc12 [compound 791] | – | – | < 0.1 | IC50 ([1]; read-out: HEK cell assay): 0.1 to 1 µM
NC1=N[C@@]2(CO1)c1cc(-c3cccc(F)c3)ccc1Oc1cnc(-c3cccc(F)c3)cc12 [compound 366] | – | – | – | IC50 [1, 6]: 0.1 to 1 µM; IC50 [2, 7]: < 0.1 µM
N#Cc1ccc(-n2ccc3c(c2=O)[C@@]2(COC(N)=N2)c2cc(-c4cccnc4)ccc2O3)cc1 [compound 523] | – | – | 1 to 5 | IC50 [1, 5]: 1 to 5 µM
CC(C)(F)COc1ccc2c(c1)[C@]1(COC(N)=N1)c1cc(-c3cncnc3)cnc1O2 [compound 176] | – | – | – | IC50 [1, 8]: 0.1 to 1 µM; IC50 [2, 9]: < 0.1 µM
CC(C)(C)COc1ccc2c(n1)[C@@]1(COC(N)=N1)c1cc(Br)ccc1O2 [compound 736] | – | – | 1 to 5 | IC50 ([1]; read-out: HEK cell assay): > 5 µM
CC1(C)CN(c2cc3c(cn2)Oc2ccc(-c4cccnc4F)cc2[C@@]32COC(N)=N2)CCO1 [compound 489] | – | – | – | IC50 ([1]; HEK cell assay (uM), HEK cells): < 0.1 µM; IC50 ([2]; BACE1 FRET assay (uM)): < 0.1 µM
NC1=N[C@@]2(CO1)c1cc(-c3cccnc3)ccc1Oc1cnc(N3CCCC3)cc12 [compound 493] | – | – | < 0.1 | IC50 [1, 5]: < 0.1 µM
COC(C)(C)C#Cc1ccc2c(c1)[C@@]1(COC(N)=N1)c1cc(-c3ccc(C)cc3)cnc1O2 [compound 577] | < 0.1 | < 0.1 | – | –
NC1=NC2(CO1)c1cc(C3=CCOCC3)ccc1Oc1ccc(C3=CCOCC3)cc12 [compound 757] | – | – | 0.1 to 1 | IC50 ([1]; read-out: HEK cell assay): 0.1 to 1 µM
CC(C)(C)COc1ccc2c(c1)[C@]1(COC(N)=N1)c1cc(C(=O)NC3CC3)ccc1O2 [compound 798] | < 0.1 | < 0.1 | – | –
NC1=NC2(CO1)c1cc(-c3ccccc3)ccc1Oc1ccc(-c3ccccc3)cc12 [compound 532] | 0.1 to 1 | < 0.1 | – | –
Cc1nc(-c2ccc3c(c2)[C@]2(COC(N)=N2)c2cc(-c4cccnc4)ccc2O3)cs1 [compound 679] | – | – | < 0.1 | IC50 ([1]; read-out: HEK cell assay): < 0.1 µM
